In PubChem BioAssay (NCI):
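Each compound was tested at five concentrations against cells in 96-well plates for 48 hours. Definition used: TGI = concentration required for complete inhibition of growth.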

Columns and labels:
Experiment in all cases: NCI tumour cell line growth inhibition, 48 h
SR leukemia = tested on: SR leukemia
OVCAR-4 ovarian = tested on: OVCAR-4 ovarian
RXF 393 renal = tested on: RXF 393 renal
KM12 colon = tested on: KM12 colon
A549 NSCLC = tested on: A549 NSCLC
MOLT-4 leukemia = tested on: MOLT-4 leukemia
SF-539 CNS = tested on: SF-539 CNS
NCI-H522 lung = tested on: NCI-H522 lung
SK-OV-3 ovarian = tested on: SK-OV-3 ovarian
CAKI-1 renal = tested on: CAKI-1 renal
PC-3 prostate = tested on: PC-3 prostate
EKVX NSCLC = tested on: EKVX NSCLC
HCT-15 colon = tested on: HCT-15 colon
SK-MEL-28 melanoma = tested on: SK-MEL-28 melanoma
OVCAR-8 ovarian = tested on: OVCAR-8 ovarian
786-0 renal = tested on: 786-0 renal
NCI-H460 lung = tested on: NCI-H460 lung
IGROV1 ovarian = tested on: IGROV1 ovarian
SF-268 CNS = tested on: SF-268 CNS
K-562 leukemia = tested on: K-562 leukemia
NCI-H226 lung = tested on: NCI-H226 lung
NCI-H23 lung = tested on: NCI-H23 lung
M14 melanoma = tested on: M14 melanoma
HCC-2998 colon = tested on: HCC-2998 colon
TK-10 renal = tested on: TK-10 renal
MCF7 breast = tested on: MCF7 breast
SNB-75 CNS = tested on: SNB-75 CNS
OVCAR-3 ovarian = tested on: OVCAR-3 ovarian
ACHN renal = tested on: ACHN renal
HT29 colon = tested on: HT29 colon
HCT-116 colon = tested on: HCT-116 colon
T-47D breast = tested on: T-47D breast
CCRF-CEM leukemia = tested on: CCRF-CEM leukemia
SNB-19 CNS = tested on: SNB-19 CNS
UACC-257 melanoma = tested on: UACC-257 melanoma
SW-620 colon = tested on: SW-620 colon
MDA-MB-435 = tested on: MDA-MB-435
MDA-MB-231 breast = tested on: MDA-MB-231 breast
SF-295 CNS = tested on: SF-295 CNS
BT-549 breast = tested on: BT-549 breast
DU-145 prostate = tested on: DU-145 prostate
SN12C renal = tested on: SN12C renal
HOP-92 NSCLC = tested on: HOP-92 NSCLC
RPMI-8226 leukemia = tested on: RPMI-8226 leukemia
HL-60(TB) leukemia = tested on: HL-60(TB) leukemia
UACC-62 melanoma = tested on: UACC-62 melanoma
MDA-N = tested on: MDA-N
U251 CNS = tested on: U251 CNS
SK-MEL-2 melanoma = tested on: SK-MEL-2 melanoma
UO-31 renal = tested on: UO-31 renal
HS 578T breast = tested on: HS 578T breast
LOX IMVI melanoma = tested on: LOX IMVI melanoma
HOP-62 NSCLC = tested on: HOP-62 NSCLC
SK-MEL-5 melanoma = tested on: SK-MEL-5 melanoma
OVCAR-5 ovarian = tested on: OVCAR-5 ovarian
NCI/ADR-RES ovarian = tested on: NCI/ADR-RES ovarian
COLO 205 colon = tested on: COLO 205 colon
MALME-3M melanoma = tested on: MALME-3M melanoma
A498 renal = tested on: A498 renal

## Cc1ccc(O)c(C(=O)/C=C/c2ccccc2)c1
SR leukemia
  TGI: > 100000 nM
OVCAR-4 ovarian
  TGI: > 100000 nM
RXF 393 renal
  TGI: > 100000 nM
KM12 colon
  TGI: > 100000 nM
A549 NSCLC
  TGI: > 100000 nM
MOLT-4 leukemia
  TGI: > 100000 nM
SF-539 CNS
  TGI: > 100000 nM
NCI-H522 lung
  TGI: > 100000 nM
SK-OV-3 ovarian
  TGI: > 100000 nM
CAKI-1 renal
  TGI: > 100000 nM
PC-3 prostate
  TGI: > 100000 nM
EKVX NSCLC
  TGI: > 100000 nM
HCT-15 colon
  TGI: > 100000 nM
SK-MEL-28 melanoma
  TGI: > 100000 nM
OVCAR-8 ovarian
  TGI: > 100000 nM
786-0 renal
  TGI: > 100000 nM
NCI-H460 lung
  TGI: > 100000 nM
IGROV1 ovarian
  TGI: > 100000 nM
SF-268 CNS
  TGI: > 100000 nM
K-562 leukemia
  TGI: > 100000 nM
NCI-H226 lung
  TGI: > 100000 nM
NCI-H23 lung
  TGI: > 100000 nM
M14 melanoma
  TGI: > 100000 nM
HCC-2998 colon
  TGI: > 100000 nM
TK-10 renal
  TGI: > 100000 nM
MCF7 breast
  TGI: > 100000 nM
SNB-75 CNS
  TGI: > 100000 nM
OVCAR-3 ovarian
  TGI: > 100000 nM
ACHN renal
  TGI: > 100000 nM
HT29 colon
  TGI: > 100000 nM
HCT-116 colon
  TGI: > 100000 nM
T-47D breast
  TGI: > 100000 nM
CCRF-CEM leukemia
  TGI: > 100000 nM
SNB-19 CNS
  TGI: > 100000 nM
UACC-257 melanoma
  TGI: > 100000 nM
SW-620 colon
  TGI: > 100000 nM
MDA-MB-435
  TGI: > 100000 nM
MDA-MB-231 breast
  TGI: > 100000 nM
SF-295 CNS
  TGI: > 100000 nM
BT-549 breast
  TGI: > 100000 nM
DU-145 prostate
  TGI: > 100000 nM
SN12C renal
  TGI: > 100000 nM
HOP-92 NSCLC
  TGI: > 100000 nM
RPMI-8226 leukemia
  TGI: > 100000 nM
HL-60(TB) leukemia
  TGI: > 100000 nM
UACC-62 melanoma
  TGI: > 100000 nM
MDA-N
  TGI: > 100000 nM
U251 CNS
  TGI: > 100000 nM
SK-MEL-2 melanoma
  TGI: > 100000 nM
UO-31 renal
  TGI: > 100000 nM
HS 578T breast
  TGI: > 100000 nM
LOX IMVI melanoma
  TGI: > 100000 nM
HOP-62 NSCLC
  TGI: > 100000 nM
SK-MEL-5 melanoma
  TGI: > 100000 nM
OVCAR-5 ovarian
  TGI: > 100000 nM
NCI/ADR-RES ovarian
  TGI: > 100000 nM
COLO 205 colon
  TGI: > 100000 nM

## CCN1CCC(O)(/C=C/c2ccc(Cl)c(Cl)c2)C(C(=O)/C=C/c2ccc(Cl)c(Cl)c2)C1 (centres undefined)
MALME-3M melanoma
  TGI: 2500 nM
OVCAR-4 ovarian
  TGI: 2210 nM
RXF 393 renal
  TGI: 2710 nM
KM12 colon
  TGI: 1880 nM
A549 NSCLC
  TGI: 1720 nM
SF-539 CNS
  TGI: 3550 nM
NCI-H522 lung
  TGI: 2330 nM
A498 renal
  TGI: 2910 nM
SK-OV-3 ovarian
  TGI: 4610 nM
CAKI-1 renal
  TGI: 3210 nM
PC-3 prostate
  TGI: 1050 nM
EKVX NSCLC
  TGI: 1890 nM
HCT-15 colon
  TGI: 4520 nM
SK-MEL-28 melanoma
  TGI: 7970 nM
OVCAR-8 ovarian
  TGI: 1870 nM
786-0 renal
  TGI: 2700 nM
NCI-H460 lung
  TGI: 2020 nM
IGROV1 ovarian
  TGI: 1710 nM
SF-268 CNS
  TGI: 2540 nM
K-562 leukemia
  TGI: 8510 nM
NCI-H226 lung
  TGI: 3810 nM
NCI-H23 lung
  TGI: 2060 nM
M14 melanoma
  TGI: 1760 nM
HCC-2998 colon
  TGI: 3250 nM
TK-10 renal
  TGI: 2810 nM
MCF7 breast
  TGI: 2670 nM
SNB-75 CNS
  TGI: 2370 nM
OVCAR-3 ovarian
  TGI: 1910 nM
ACHN renal
  TGI: 2430 nM
HT29 colon
  TGI: 1820 nM
HCT-116 colon
  TGI: 1730 nM
T-47D breast
  TGI: 2360 nM
CCRF-CEM leukemia
  TGI: 1130 nM
SNB-19 CNS
  TGI: 3710 nM
UACC-257 melanoma
  TGI: 2710 nM
SW-620 colon
  TGI: 1400 nM
MDA-MB-435
  TGI: 2220 nM
MDA-MB-231 breast
  TGI: 1600 nM
SF-295 CNS
  TGI: 1740 nM
BT-549 breast
  TGI: 2010 nM
DU-145 prostate
  TGI: 3240 nM
SN12C renal
  TGI: 2060 nM
HOP-92 NSCLC
  TGI: 1580 nM
RPMI-8226 leukemia
  TGI: > 100000 nM
HL-60(TB) leukemia
  TGI: 905 nM
UACC-62 melanoma
  TGI: 2400 nM
MDA-N
  TGI: 2890 nM
U251 CNS
  TGI: 3790 nM
SK-MEL-2 melanoma
  TGI: 3660 nM
UO-31 renal
  TGI: 2300 nM
HS 578T breast
  TGI: 2420 nM
LOX IMVI melanoma
  TGI: 2020 nM
HOP-62 NSCLC
  TGI: 2480 nM
SK-MEL-5 melanoma
  TGI: 2180 nM
OVCAR-5 ovarian
  TGI: 2520 nM
NCI/ADR-RES ovarian
  TGI: 2270 nM
COLO 205 colon
  TGI: 1740 nM
